Laboratory results reported in patent US20140094370A1, “FORMULATION COMPONENT” (SYNGENTA LIMITED, priority 2011, published 2014).

Legend:
[1] = test system: Chenopodium album (CHEAL), Abutilon theophrasti (ABUTH), Setaria viridis (SETVI) and Xanthium strumarium (XANST); experiment: Glasshouse herbicide efficacy test of fomesafen compositions with adjuvant against four weed species; format: in vivo; settings: mean over fomesafen 60 and 120 g/ha, three replicates, four weed species, 2, 7 and 14 days after application; adjuvant 0.5% v/v; 200 liters per hectare
Protocol: (§1) The aromatic ester bis-2-ethylhexyl phthalate was tested as an adjuvant in compositions of fomesafen, in a glasshouse against four weed species. An agrochemical composition was prepared containing 0.5% v/v of the adjuvant in a track sprayer and was applied at a volume of 200 liters per hectare. Fomesafen was applied at a rate of either 60 or 120 grams per hectare. The adjuvant oils were emulsified using a small amount of the surfactant Pluronic® PE 10500, which was present in the composition at a concentration of 0.02% v/v. The weed species and their growth stage at spraying were Chenopodium album (CHEAL; growth stage 14), Abutilon theophrasti (ABUTH; growth stage 12), Setaria viridis (SETVI; growth stage 13), and Xanthium strumarium (XANST; growth stage 12).
Each spray test was replicated three times. The efficacy of the herbicide was assessed visually and expressed as a percentage of the leaf area killed. Samples were assessed at time periods of 2, 7 and 14 days following application. The results shown below in Table 11 are mean averages over the two rates of fomesafen, three replicates, four weed species and the three assessment timings, and are compared to the efficacy of fomesafen without adjuvant and fomesafen with the commercially available adjuvant Turbocharge® (applied at 0.5% v/v).

[2] = test system: Polygonum convolvulus (POLCO), Brachiaria platyphylla (BRAPL), Digitaria sanguinalis (DIGSA) and Amaranthus tuberculatus (AMATU); experiment: Glasshouse herbicide efficacy test of mesotrione compositions with adjuvant against four weed species; format: in vivo
Protocol: as §1, with “mesotrione,” for “fomesafen,”, “Mesotrione” for “Fomesafen”, “at” for “at a rate of”, “Polygonum convolvulus (POLCO;” for “Chenopodium album (CHEAL; growth stage 14), Abutilon theophrasti (ABUTH; growth stage 12), Setaria viridis (SETVI;”, “Brachiaria platyphylla (BRAPL;” for “and Xanthium strumarium (XANST;”, “13)” for “12).”
Digitaria sanguinalis (DIGSA; growth stage 13) and Amaranthus tuberculatus (AMATU; growth stage 13).
Each spray test was replicated three times. The efficacy of the herbicide was assessed visually and expressed as a percentage of the leaf area killed. Samples were assessed at time periods of 7, 14 and 21 days following application. The results shown below in Table 10 are mean averages over the two rates of mesotrione, three replicates, four weed species and the three assessment timings, and are compared to the efficacy of mesotrione in the absence of adjuvant and mesotrione plus the commercial tank mix adjuvant Turbocharge® (applied at 0.5% v/v).

CS(=O)(=O)NC(=O)c1cc(Oc2ccc(C(F)(F)F)cc2Cl)ccc1[N+](=O)[O-] [Fomesafen]
Mean percentage kill (percentage of the leaf area killed), mean across species [1]: 14.3 C %

CS(=O)(=O)c1ccc(C(=O)C2C(=O)CCCC2=O)c([N+](=O)[O-])c1 [Mesotrione]
Mean percentage kill (percentage of the leaf area killed), mean across species ([2]; mean over mesotrione 60 and 120 g/ha, three replicates, four weed species, 7, 14 and 21 days after application, adjuvant 0.5% v/v, 200 liters per hectare): 49.6 B %

CCCCC(CC)COC(=O)c1ccccc1C(=O)OCC(CC)CCCC (stereo not drawn) [bis-2-ethylhexylphthalate, Bis(2-ethylhexyl) phthalate]
Adjuvant effect on efficacy of the herbicide (in words) ([2]; adjuvant 0.5% v/v with mesotrione, versus mesotrione without adjuvant): increases the efficacy of the herbicide mesotrione
